According to patent publication US10702537B2, “Devices and methods of treating methamphetamine addiction and medical and behavioral consequences of methamphetamine use and of HIV infection” (Board of Supervisors of Louisiana State University and …, priority 2015, dated 2020):
Entries after “also recorded” stand apart in the source; their conditions may differ. Where two headings read alike, the source gives them in different places.

Experiments:
rats [1] = conditions: cited from earlier work
male rats = test: methamphetamine self-administration in male rats; type: in vivo, rat; conditions: for antagonism of oxazepam's effect on methamphetamine self-administration: standard dose methamphetamine; for low dose methamphetamine self-administration: alprazolam 4 mg/kg IP, very low doses of methamphetamine, FIG. 3, 5A
female rats [2] = test: methamphetamine self-administration in female rats; type: in vivo, rat
Description: Turning to FIGS. 6 and 7, the inventors tested the TSPO compound Ro5-4864 in an animal model of methamphetamine self-administration in male and female rats. […] The inventors compared these effects to the effects of the benzodiazepine alprazolam. […] The inventors also show preliminary data with Ro7-9277 with female rats.

female rats [3] = test: cocaine drug discrimination; type: in vivo, rat; conditions: pretreatment, FIG. 2B
TSPO [4] = target: TSPO (Rattus norvegicus, UniProt P16257); test: ex vivo homogenate binding, TSPO; conditions: structure-activity relationships, confirmed by ex vivo homogenate binding in rat brain tissue
GABAA receptor = test: ex vivo homogenate binding, GABAA receptor; conditions: structure-activity relationships, confirmed by ex vivo homogenate binding in rat brain tissue
[5] = test system: drug-dependent individuals; conditions: cited from earlier work
female Wistar rats = test: methamphetamine drug discrimination; type: in vivo, rat; conditions: female Wistar rats trained to discriminate 1 mg/kg methamphetamine (IP) from saline; pretreatment; alprazolam 4 mg/kg IP at low doses 0.125 and 0.25 mg/kg methamphetamine; FIG. 2A
Method: (§1) Adult female Wistar rats were trained to discriminate 1 mg/kg methamphetamine (IP) from saline using food pellet reinforcement according to previously published procedures (Mantsch and Goeders, 1999, 1998). Pretreatment with alprazolam (4 mg/kg, IP) enhanced the methamphetamine discriminative stimulus at doses of 0.125 and 0.25 mg/kg methamphetamine. […] These observations have been confirmed using a conditioned place preference model as well, evidencing that benzodiazepines differentially modulate the rewarding and reinforcing properties of methamphetamine. […] Thus, this is an extraordinarily consistent pattern across three very different models of drug-related behaviors.

rats [6] = test: methamphetamine drug-induced reinstatement (D-IR) study; type: in vivo, rat; conditions: FIG. 4
[7] = cocaine-related behaviors; conditions: in vivo
Method: Benzodiazepines affect cocaine and methamphetamine-related behaviors differently—The inventors' laboratory has long been interested in the role for benzodiazepines in drug addiction.
as §1

humans = conditions: Lile et al., cited from earlier work
TSPO [8] = conditions: cited from earlier work
[9] = rats, intraperitoneal injection; cited from earlier work
TSPO mRNA = conditions: rats; 1.0 mg/kg IP twice per day for 2 weeks, withdrawn for 7 days; cited from earlier work
[10] = humans, cited from earlier work
[11] = male rats trained at 0.06 mg/kg/infusion, pretreatment

Chain of TSPO (Rattus norvegicus, UniProt P16257) (P16257 whole entry): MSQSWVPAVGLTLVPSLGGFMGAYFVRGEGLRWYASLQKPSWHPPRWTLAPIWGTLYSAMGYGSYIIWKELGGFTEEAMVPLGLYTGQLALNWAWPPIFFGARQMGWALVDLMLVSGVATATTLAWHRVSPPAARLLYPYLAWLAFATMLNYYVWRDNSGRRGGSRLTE

CC(=O)[C@H]1CC[C@H]2[C@@H]3CC[C@H]4C[C@H](O)CC[C@]4(C)[C@H]3CC[C@]12C [Allopregnanolone]
cocaine-related responding (rats [1]; both genders): decrease
methamphetamine-related responding (rats [1]; female rats): decrease

CCC(C)N(C)C(=O)c1cc2ccccc2c(-c2ccccc2Cl)n1 (stereo not shown) [PK11195]
antagonism of oxazepam's effect on methamphetamine self-administration (male rats; male rats, FIG. 5B): partially blocked
antagonism of oxazepam's effect on methamphetamine self-administration (male rats; male rats, FIG. 5B, listed as PKII195): blocked

CN1C(=O)CN=C(c2ccc(Cl)cc2)c2cc(Cl)ccc21 [Ro5-4864, 4′,7-Dichloro-1,3-dihydro-1-methyl-5-phenyl-2H-1,4-benzodiazepin-2-one]
methamphetamine self-administration (male rats; male rats, FIG. 6): dose-related decrease
sensitivity of female rats compared to male rats to the effect on methamphetamine self-administration (female rats [2]; FIG. 7 versus FIG. 6): significantly more sensitive
methamphetamine self-administration (female rats [2]; female rats, FIG. 7): dose-related decrease

Cc1nnc2n1-c1ccc(Cl)cc1C(c1ccccc1)=NC2 [alprazolam, 8-chloro-1-methyl-5-phenyl-4H-(1,2,4)triazolo-1,4-benzodiazepine]
cocaine discriminative stimulus effects (female rats [3]): did not affect; also recorded: no effect
binding to the TSPO (TSPO [4]): low affinity
binding to the GABAA receptor (GABAA receptor): binds selectively
desirability among benzodiazepines (abuse liability) [5]: one of the most desired
low dose methamphetamine self-administration (male rats; [11]): enhanced; also recorded: significant increases
methamphetamine discriminative stimulus effects (female Wistar rats): enhanced
low dose methamphetamine-induced reinstatement (rats [6]; low-dose priming injection of methamphetamine): enhanced; also recorded: potentiated
cocaine-related behaviors [7]: decrease; also recorded: reduce
subjective effects of the methamphetamine high (humans; benzodiazepine given acutely at the same time as the stimulant): reduced

CCOC(=O)c1ncn2c1CN(C)C(=O)c1cc(F)ccc1-2 [flumazenil]
antagonism of alprazolam's effect on low-dose methamphetamine self-administration (male rats; antagonist administered 30 minutes prior to alprazolam, FIG. 5A): inhibited; also recorded: blocked
antagonism of oxazepam's effect on methamphetamine self-administration (male rats; male rats, FIG. 5B): partially blocked

CN[C@@H](C)Cc1ccccc1 [methamphetamine]
TSPO binding (TSPO [8]; self-administration of methamphetamine 0.3 mg/kg/inf): enhances
TSPO binding in the striatum, cerebellum and hippocampus (TSPO [8]; subchronic repeated doses 4×10 mg/kg SC every two hours, within 72 hours): increase
Tmax of methamphetamine [9]: 7.5 ± 2.8 min
TSPO mRNA (TSPO mRNA): enhances
Tmax of methamphetamine in blood ([10]; intranasal administration): 2.82 ± 0.13 h
Tmax of methamphetamine in blood ([10]; intravenously administered): 0.1 ± 0.183 h
Tmax of methamphetamine in blood ([10]; oral, range 180-300 min): 3.6 h
Tmax of methamphetamine in blood ([10]; smoked): 2.5 ± 0.5 h

O=C1Nc2ccc(Cl)cc2C(c2ccccc2)=NC1O (stereo not shown) [oxazepam, 7-chloro-1,3-dihydro-3-hydroxy-5-phenyl-2H-1,4-benzodiazepin-2-one]
cocaine discriminative stimulus effects (female rats [3]): dose-dependently decreased
binding to the TSPO (TSPO [4]): binds
binding to the GABAA receptor (GABAA receptor): binds
desirability among benzodiazepines (abuse liability) [5]: one of the least desirable
low dose methamphetamine self-administration (male rats; [11]): no effect
methamphetamine self-administration across all doses tested (male rats; male rats trained at 0.06 mg/kg/infusion, pretreatment, FIG. 3): decreased; also recorded: significant decreases
standard dose methamphetamine self-administration (male rats; male rats, FIG. 5B): decreased
methamphetamine discriminative stimulus effects (female Wistar rats): dose-dependently decreased
methamphetamine-induced reinstatement (rats [6]; all doses tested): decreased
cocaine-related behaviors [7]: decrease; also recorded: reduce
subjective effects of d-amphetamine (humans; benzodiazepine given acutely at the same time as amphetamine): no significant effect
